Experimental data: PMC6974970 (Annals of Clinical Microbiology and Antimicrobials, 2020)
“And” between values parts separate entries of the source, which are not always exact repeats. Equal entries are not always repeated. “Also recorded” adds a separate entry of the source. Where two headings read alike, the source gives them in different places.

Experiment: Pharmacokinetic monitoring of plasma LPV and RTV (HPLC/MS–MS) in TB/HIV co-infected patients on LPV/RTV plus rifabutin
Format: in vivo, human
Conditions: for concentration: read-out: C0 (plasma drug concentration before the morning dose); for Tmax, individual patients: unit from Table 2; for AUC(0-t): read-out: AUC0–12h; for concentration at 12 h: read-out: C12 (plasma drug concentration 12 h post-dose); for C1, individual patients: individual plasma concentration at 1 h; for C2, individual patients: individual plasma concentration at 2 h; for C3, individual patients: individual plasma concentration at 3 h; for C4, individual patients: individual plasma concentration at 4 h; for C6, individual patients: individual plasma concentration at 6 h; for C8, individual patients: individual plasma concentration at 8 h; for C12, individual patients: individual plasma concentration at 12 h; for C0, individual patients: individual plasma concentration before dose, per patient
Protocol: This was a pharmacokinetic study based on the use of LPV and RTV in HIV and tuberculosis co-infected adults. They were being treated with rifabutin 150 mg thrice weekly or rifabutin 300 mg thrice weekly.
The patients were participating in the RIFLOPI study registered on PACTR201310000629390. They were recruited from the Bogodogo and Kossodo district hospitals in Ouagadougou from May 2013 to December 2015. Study inclusion criteria were that the patients were between 18 and 60 years of age, HIV-1 infected with pulmonary tuberculosis confirmed or suspected. […] The 2 weeks minimum delay comes from the time frame of building up full induction effect. The participating patients were divided into two groups. The first group (RBT 150 mg thrice weekly) consisted of nine patients on antiretroviral and anti-tuberculosis treatment including LPV (LPV/RTV 400/100 mg + 2INTI) twice daily in combination with rifabutin 150 mg thrice weekly and standard ethambutol–isoniazid–pyrazinamide. The second group (RBT 300 mg thrice weekly) consisted of seven patients treated with (LPV/RTV 400/100 mg + 2INTI) twice daily in combination with rifabutin 300 mg thrice weekly and standard ethambutol–isoniazid–pyrazinamide. […] Each patient took a daily dose of cotrimoxazole to prevent opportunistic infections associated with HIV.
Pharmacokinetic monitoring was performed after 2 weeks of combined LPV/RTV and RBT treatment. On the day before pharmacokinetic monitoring, patients were admitted and fasted from midnight onwards. The pharmacokinetic assessment was conducted on a day when a dose of RBT was taken. The first measure of the pharmacokinetic monitoring (time zero) was performed on an empty stomach before taking the daily dose of RBT and LPV/RTV. After the first blood sampling, patients immediately (within 5 min) took their rifabutin and LPV/RTV regimen. Subsequent blood samples for pharmacokinetic monitoring were collected at 1, 2, 3, 4, 6, 8 and 12 h after combined drug ingestion. Breakfast (a sandwich and water) was served to the patients 2 h after drug ingestion.
Two to three millilitres of blood was collected in a heparinized primary vial and centrifuged at 3000 rpm for 10 min within 1 h of collection. The plasma was stored at − 20 °C until transportation to the laboratory for the pharmacokinetic analysis.
A high-performance liquid chromatography–mass spectrometry (HPLC/MS–MS) assay previously described by Moyer et al. was used to determine the LPV and RTV plasma concentrations at the Service of Clinical Pharmacology (IRCCS S Matteo, Pavia, Italy). The limit of quantification was 0.05 µg/mL for both drugs. The assay was validated in accordance with the European Medicines Agency (EMA) “Guidelines on bioanalytical method validation. The areas under the plasma concentration–time curve (AUC) were calculated by using the linear trapezoidal rule.
Data were entered using EpiData (http://www.epidata.dk) and Excel and analysed with Stata, version 13 (https://www.stata.com, StataCorp LP; College Station, TX, USA). Descriptive statistics were used to describe the patient’s characteristics and to calculate the frequencies, proportions and medians with interquartile intervals. Statistical comparisons were made using Fisher’s exact test with 5% set as the significance level. For the LPV and RTV pharmacokinetic profile, we determined for each patient the Cmax (peak concentration measured (µg/mL)), the Ctrough (drug plasma concentration measured just prior to administration of the drug dose (µg/mL)), the Tmax (time for Cmax), the area under the curve during a dosing interval (AUC0–12 = plasma concentration * time (µg × h/mL) and the apparent clearance (CL/F, true clearance divided by the true absolute bioavailability).

[1] = first group RBT 150 mg TPW, listed as RTV
[2] = human, plasma, oral, LPV/RTV 400/100 mg twice daily with RBT 150 mg TPW (n = 9), median and IQR
[3] = human, plasma, oral, LPV/RTV 400/100 mg twice daily with RBT 300 mg TPW (n = 7), median and IQR
[4] = second group RBT 300 mg TPW, listed as RTV

## CC(C)c1nc(CN(C)C(=O)N[C@H](C(=O)N[C@@H](Cc2ccccc2)C[C@H](O)[C@H](Cc2ccccc2)NC(=O)OCc2cncs2)C(C)C)cs1 [Ritonavir, ritonavir]
LPV/RTV 400/100 mg twice daily with RBT 150 mg TPW (arm A, n = 9), median and IQR, plasma
  concentration: 2100 ng/mL
LPV/RTV 400/100 mg twice daily with RBT 300 mg TPW (arm B, n = 7), median and IQR, plasma
  concentration: 1600 ng/mL
[1]
  AUC0–12, individual patients: 10800 ng·h/mL and 23500 ng·h/mL and 14800 ng·h/mL and 7800 ng·h/mL and 8900 ng·h/mL and 12800 ng·h/mL and 12200 ng·h/mL and 18500 ng·h/mL
  Cl, individual patients: 2.83 mL/min/kg and 1.3 mL/min/kg and 1.83 mL/min/kg and 4.17 mL/min/kg and 3.17 mL/min/kg and 3 mL/min/kg and 2.5 mL/min/kg
  Cmax, individual patients: 3600 ng/mL and 2900 ng/mL and 1280 ng/mL and 1860 ng/mL and 2260 ng/mL and 2740 ng/mL and 3160 ng/mL
  Tmax, individual patients: 1 h and 4 h and 6 h
  C1, individual patients: 1.91 µg/mL and 3.8 µg/mL and 3.1 µg/mL and 0.4 µg/mL and 1.86 µg/mL and 2 µg/mL
  C2, individual patients: 1.72 µg/mL and 3.6 µg/mL and 2.6 µg/mL and 1.7 µg/mL and 2.5 µg/mL and 2.24 µg/mL
  C3, individual patients: 1.65 µg/mL and 3.5 µg/mL and 2.9 µg/mL and 0.64 µg/mL and 0.4 µg/mL and 1.81 µg/mL
  C4, individual patients: 1.2 µg/mL and 2.7 µg/mL and 1.7 µg/mL and 1.28 µg/mL and 0.5 µg/mL and 2.26 µg/mL
  C6, individual patients: 1.64 µg/mL and 3.3 µg/mL and 1.5 µg/mL and 0.7 µg/mL and 1 µg/mL
  C8, individual patients: 1.24 µg/mL and 2.8 µg/mL and 1.2 µg/mL and 2.4 µg/mL and 1 µg/mL and 1.5 µg/mL
  C12, individual patients: 1.1 µg/mL and 3.6 µg/mL and 0.6 µg/mL and 0.2 µg/mL and 1.33 µg/mL and 1.7 µg/mL
  C0, individual patients: 1850 ng/mL and 4110 ng/mL and 3100 ng/mL and 1200 ng/mL and 2100 ng/mL and 1430 ng/mL
First group RBT 150 mg TPW
  Tmax, individual patients: 3 h
human, plasma, oral, 150 mg, first group RBT 150 mg TPW, read-out: Cmax, individual patients
  Cmax: 1910 ng/mL
[2]
  AUC(0-t): 12700 ng·h/mL
  concentration at 12 h: 1700 ng/mL
human, plasma, oral, LPV/RTV 400/100 mg twice daily with RBT 150 mg TPW (n = 9), median and IQR, read-out: Cmax
  Cmax: 2700 ng/mL
[3]
  Tmax: 2 h
  AUC(0-t): 6600 ng·h/mL
  concentration at 12 h: 600 ng/mL
human, plasma, oral, LPV/RTV 400/100 mg twice daily with RBT 300 mg TPW (n = 7), median and IQR, read-out: CL (apparent clearance, CL/F) (converted)
  CL/F: 4.83 mL/min/kg
human, plasma, oral, LPV/RTV 400/100 mg twice daily with RBT 300 mg TPW (n = 7), median and IQR, read-out: Cmax
  Cmax: 1500 ng/mL
[4]
  C1, individual patients: Low and 0.37 µg/mL and 1.97 µg/mL and 2.14 µg/mL and 1.64 µg/mL and 1.5 µg/mL
  C2, individual patients: 1 µg/mL and 0.4 µg/mL and 0.8 µg/mL and 2.22 µg/mL and 2.43 µg/mL and 1.9 µg/mL and 1.12 µg/mL
  C3, individual patients: 1.33 µg/mL and 0.3 µg/mL and 0.8 µg/mL and 1.41 µg/mL and 2.4 µg/mL and 1.9 µg/mL and 1.2 µg/mL
  C4, individual patients: 1.44 µg/mL and 0.38 µg/mL and 0.9 µg/mL and 0.95 µg/mL and 1.67 µg/mL and 2 µg/mL and 1 µg/mL
  C6, individual patients: 1.22 µg/mL and 0.3 µg/mL and 0.8 µg/mL and 1.45 µg/mL and 1.3 µg/mL and 2.5 µg/mL and 0.5 µg/mL
  C8, individual patients: 1.1 µg/mL and 0.28 µg/mL and 0.9 µg/mL and 0.66 µg/mL and 1 µg/mL and 2 µg/mL and 0.13 µg/mL
  C12, individual patients: 0.62 µg/mL and low and 0.6 µg/mL and 0.53 µg/mL and 0.7 µg/mL and 1.86 µg/mL and Low
  C0, individual patients: below the limit of quantification and Low and 0.41 µg/mL and 0.2 µg/mL and 2.72 µg/mL and 1.84 µg/mL and 1.55 µg/mL and 2.3 µg/mL
  Cl, individual patients: 6.5 mL/min/kg and 13.5 mL/min/kg and 9 mL/min/kg and 2.67 mL/min/kg and 3.33 mL/min/kg and 2.5 mL/min/kg and 4.83 mL/min/kg
  Tmax, individual patients: 4 h and 6 h and 1 h
Patients receiving RBT 300 mg TPW compared to RBT 150 mg TPW, listed as RTV
  reduction of plasma concentrations, RBT 300 mg versus RBT 150 mg: nearly halved; also recorded: nearly half
